Laboratory results published in patent US6423508B1, “Polynucleotide sequences of human EDG-1c” (SmithKline Beecham Corporation, priority 1998, dated 2002).
Read-outs that look alike come from different tables or passages of the source. Blank lines part the entries; values can stand above or below the compound they belong to.

How the values were obtained:
[1] = test system: endogenous receptors of RBL 2H3 cells; assay: Responses of control ligands of endogenous receptors in RBL 2H3 EDG-1c cells (calcium mobilization, FLIPR); format: cell-based; details: FIG. 8
Procedure: (§1) A number of cell lines were examined to identify one that would not respond to S-1-P through an endogenous receptor. […] Stable cell lines of the EDG1-c receptor were prepared in RBL 2H3 cell line. The expression of functionally active clones were followed using Fluorescent imaging plate reader (FLIPR).

human EDG-1c receptor [2] = biological target: T1, human EDG-1c receptor (Homo sapiens, UniProt P21453); assay: Calcium mobilization in RBL 2H3 cells stably transfected with human EDG-1c receptor (FLIPR); format: cell-based
T1 construct: expressed in transfected cells
Procedure: as §1

[3] = test system: untransfected HEK 293 cells (endogenous receptors that respond to S-1-P); assay: S-1-P-induced Ca2+ mobilization in untransfected HEK 293 cells (FLIPR); format: cell-based; details: FIG. 3
Text: The data were generated with the 96 well Fluorescent Imaging Plate Reader (FLIPR). Each point is the mean of 6-8 wells read on FLIPR.

human EDG-1c receptor [4] = biological target: T1, human EDG-1c receptor; assay: S-1-P-induced FUS1-LacZ reporter gene expression in yeast expressing human EDG-1c; format: cell-based; details: yeast FUS1-LacZ cells expressing human EDG-1c, FIG. 5
Text: The yeast strain(s) used contain mutations in genes in the pheromone response pathway, e.g., (i) deletion of the STE2 or STE3 gene encoding the endogenous G-protein coupled pheromone receptors; (ii) deletion of the FAR1 gene encoding a protein that normally associates with cyclin-dependent kinases leading to cell cycle arrest; and (iii) construction of reporter genes fused to the FUS1 gene promoter (where FUS1 encodes a membrane-anchored glycoprotein required for cell fusion). The downstream reporter (FUS1-LacZ) permits a colorimetric or fluorimetric readout in response to ligand.

[5] = test system: rat neonatal cardiomyocytes; assay: Cellular hypertrophy in rat neonatal cardiomyocytes in culture; format: cell-based
Procedure: […] was tested in its ability to induce hypertrophy in an in vitro neonatal cardiomyocyte model. The assessment of cardiomyocyte hypertrophy is measured using four different parameters: protein synthesis (tritiated phenylalanine incorporation and protein content increase), tritiated thymidine incorporation (evaluation of fibroblast contamination), Brain Natriuretic Peptide (BNP) release and morphological parameters. Phenylephrine (PE) at 100 μM concentration is used as internal control experiments. […] Cardiomyocytes in culture display features of myocyte hypertrophy observed in vivo, such as changes in morphology (vizualised using light microscopy after staining with crystal violet), protein content, and pattern of gene expression.

[6] = test system: isolated perfused rabbit heart; assay: Functional effects on isolated perfused rabbit heart; details: 10 nM
Procedure: The functional effects of […] have been examined in isolated perfused rabbit heart. […] An increased in AoP (aortic pressure), reflecting a vasoconstrictor effect was observed, i.e., about 30% of increase at 5 min of treatment compared to the vehicle (methanol 0.001%).

T1 sequence (P21453 whole entry): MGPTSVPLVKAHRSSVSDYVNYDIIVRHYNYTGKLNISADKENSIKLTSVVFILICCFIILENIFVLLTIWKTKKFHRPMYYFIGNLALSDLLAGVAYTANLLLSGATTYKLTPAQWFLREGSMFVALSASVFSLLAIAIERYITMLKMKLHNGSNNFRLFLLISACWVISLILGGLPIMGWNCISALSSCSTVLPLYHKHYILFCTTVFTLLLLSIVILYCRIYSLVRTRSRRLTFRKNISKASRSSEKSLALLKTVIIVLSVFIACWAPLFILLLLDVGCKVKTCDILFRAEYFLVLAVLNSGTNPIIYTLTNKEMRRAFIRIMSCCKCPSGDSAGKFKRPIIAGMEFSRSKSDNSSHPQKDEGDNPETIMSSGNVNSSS

EC50 of endogenous-receptor ligands [1]: expected EC50 values
Compound: CCCCC/C=C\C\C=C/C=C/C=C/[C@@H](SC[C@H](N)C(=O)NCC(=O)O)[C@@H](O)CCCC(=O)O [leukotriene D4]

expression of beta-galactosidase (FUS1-LacZ reporter response) (human EDG-1c receptor [4]): receptor-dependent response | EC50 (human EDG-1c receptor [2]; several RBL 2H3 EDG1-c clones, FIG. 7, read-out: EC50, calcium mobilization, best clones): 10 to 20 nM
Compound: CCCCCCCCCCCCC/C=C/[C@@H](O)[C@@H](N)COP(=O)(O)O [S-1-P, sphingosine 1-phosphate]
calcium mobilization response [3]: robust calcium mobilization response | cellular hypertrophy (increase of protein content, phenylalanine incorporation and BNP secretion to control cell values) ([5]; 10 nM, 100 nM and 1 μM (n=3), each concentration): induced a cellular hypertrophy | increase of phenylalanine incorporation to the control cell values ([5]; 1 μM (n=3)): 30.1%±9.2 | increase of protein content to the control cell values ([5]; 1 μM (n=3)): 35.6%±6.3 | increase of thymidine incorporation to the control cell values ([5]; 1 μM (n=3)): 11.4%±1.8 | BNP secretion vs. control ([5]; S-1-P treated cardiomyocyte vs. control): four fold higher | LVEDP (left ventricular end-diastolic pressure) [6]: marked reduction | increase in AoP (aortic pressure), vasoconstrictor effect ([6]; at 5 min of treatment, compared to the vehicle (methanol 0.001%)): about 30% | inotropic effect (pressure value) ([6]; at 10 min of drug administration, controls 96.09±6 mm Hg): 84.7±6.3 mm Hg

The remaining lines, values behind:

Compound: lysophosphatidic acid
calcium mobilization response of RBL 2H3 EDG-1c cells (human EDG-1c receptor [2]; best clones, FIG. 8): did not respond

Compound: C[C@@H]1O[C@H](C[N+](C)(C)C)C[C@H]1O [Muscarine]
response of RBL 2H3 EDG-1c cells to control ligand [1]: did not respond

Compound: sphingosine phosphorylcholine
EC50, calcium mobilization through the EDG1-c receptor (in words) (human EDG-1c receptor [2]; best clones, FIG. 8): in the uM range | calcium mobilization response of RBL 2H3 EDG-1c cells (human EDG-1c receptor [2]; best clones, FIG. 8): weakly

Compound: CCCCCCCCCCCCCCCC(O)C(N)COP(=O)(O)O (stereo not drawn) [dihydro-S-1-P, di-hydro sphingosine 1-phosphate]
EC50 (human EDG-1c receptor [2]): 10 to 20 nM

Compound: Nc1ncnc2c1ncn2[C@@H]1O[C@H](COP(=O)(O)OP(=O)(O)OP(=O)(O)O)[C@@H](O)[C@H]1O [ATP]
EC50 of endogenous-receptor ligands [1]: expected EC50 values
